In one test the target is T1, mKv1.3 (Mus musculus, UniProt P16390).
T1 construct: expressed in transfected cells
The test is described as follows: Whole-cell patch clamp electrophysiology, Kv1.3 channel currents. The format is cell-based. An excerpt:
Data are presented as mean±s.e.m.
Electrophysiological analysis—Cells were studied using the whole-cell configuration of a standard patch-clamp technique at RT. The bath solution contained (in mM): 160 NaCl, 4.5 KCl, 2 CaCl2, 1 MgCl2, 10 HEPES, pH 7.2, 300 mOsm. […] Kv currents were elicited by repeated 200 ms depolarising pulses from a holding potential of −80 mV to 40 mV, applied every 30 seconds. The Port-a-Patch patch clamp system (Nanion Technologies GmbH, Munich, Germany) and NPC-1 chips with 2-3.5 MΩ resistance were also utilised in conjunction. IC50 values of Kv blockers were calculated by fitting the Hill equation to the reduction of peak current measured at 40 mV.
Thus, both analogues have reduced affinity to K^+ channels and show a relatively low level of selectivity for Kv1.3 over Kv1.1. The implication is that neither Ser-3 nor Glu-3 was able to greatly discriminate between Pro377 in Kv1.3 and the corresponding Ala in Kv1.1.
For orientation: In patch-clamp work, channel activity is measured electrically.

In another test the target is Kv1.3 (Mus musculus, UniProt P16390). The following applies: literature values (Kalman 1998; Pennington 2009); spread = s.e.m.; read-out: Binding affinities (IC50) Kv1.3; cited from earlier work.
Chain of Kv1.3 (P16390 whole entry): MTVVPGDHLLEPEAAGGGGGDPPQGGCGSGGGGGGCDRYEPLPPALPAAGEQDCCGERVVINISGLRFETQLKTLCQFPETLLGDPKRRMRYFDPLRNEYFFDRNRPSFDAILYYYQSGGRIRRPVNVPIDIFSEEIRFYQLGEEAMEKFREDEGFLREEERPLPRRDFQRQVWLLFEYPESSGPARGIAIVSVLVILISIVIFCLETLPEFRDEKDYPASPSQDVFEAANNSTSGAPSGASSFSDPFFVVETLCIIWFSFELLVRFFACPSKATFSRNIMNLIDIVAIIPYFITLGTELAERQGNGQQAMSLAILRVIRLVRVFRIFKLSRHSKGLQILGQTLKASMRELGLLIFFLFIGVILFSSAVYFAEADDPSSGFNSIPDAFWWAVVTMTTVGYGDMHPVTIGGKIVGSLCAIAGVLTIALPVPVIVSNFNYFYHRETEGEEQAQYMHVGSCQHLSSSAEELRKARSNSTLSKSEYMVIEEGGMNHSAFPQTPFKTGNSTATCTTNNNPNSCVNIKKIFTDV

T1 sequence (P16390 whole entry): as above

On to `CC[C@H](C)[C@@H]1NC(=O)[C@@H](NC(=O)[C@H](CO)NC(=O)[C@H](CCCNC(=N)N)NC(=O)[C@H](CO)NC(=O)[C@H](CO)NC(=O)[C@H](CCC(=O)O)NC(=O)[C@@H](N)CCC(=O)O)CSSC[C@@H](C(N)=O)NC(=O)[C@H]([C@@H](C)O)NC(=O)CNC(=O)[C@@H]2CSSC[C@@H]3NC(=O)[C@H](CCC(N)=O)NC(=O)[C@H](Cc4ccccc4)NC(=O)[C@H](C)NC(=O)[C@H]([C@@H](C)O)NC(=O)[C@H](CSSC[C@H](NC(=O)[C@H](Cc4ccccc4)NC(=O)[C@H](CO)NC(=O)[C@H](CC(C)C)NC(=O)[C@H](CCCNC(=N)N)NC(=O)[C@H](Cc4ccc(O)cc4)NC(=O)[C@H](CCCCN)NC(=O)[C@H](CCSC)NC(=O)[C@H](CO)NC(=O)[C@H](Cc4c[nH]cn4)NC(=O)[C@H](CCCCN)NC3=O)C(=O)N[C@@H](CCCNC(=N)N)C(=O)N[C@@H](CCCCN)C(=O)N[C@@H]([C@@H](C)O)C(=O)N2)NC(=O)[C@H](CCCNC(=N)N)NC(=O)[C@H](CO)NC(=O)[C@H](CCCCN)NC(=O)[C@@H]2CCCN2C(=O)[C@H]([C@@H](C)CC)NC(=O)[C@H]([C@@H](C)O)NC(=O)[C@H](CC(=O)O)NC1=O` [[EESS]ShK], for which the half-maximal inhibitory concentration (IC50) (as a rule, the concentration that inhibits the measured activity by half) at mKv1.3 came out at 404 ± 58 pM. For the same molecule, on mKv1.3 (relative to [ESSS]ShK), the “higher affinity for Kv1.3 as compared to [ESSS]ShK” value is recorded as 1.6 fold.
Take `CC[C@H](C)[C@@H]1NC(=O)[C@@H](NC(=O)[C@H](CO)NC(=O)[C@H](CCCNC(=N)N)NC(=O)[C@H](CO)NC(=O)[C@H](CO)NC(=O)[C@H](Cc2c[nH]c3ccccc23)NC(=O)[C@@H](N)CCC(=O)O)CSSC[C@@H](C(=O)O)NC(=O)[C@H]([C@@H](C)O)NC(=O)CNC(=O)[C@@H]2CSSC[C@@H]3NC(=O)[C@H](CCC(N)=O)NC(=O)[C@H](Cc4ccccc4)NC(=O)[C@H](C)NC(=O)[C@H]([C@@H](C)O)NC(=O)[C@H](CSSC[C@H](NC(=O)[C@H](Cc4ccccc4)NC(=O)[C@H](CO)NC(=O)[C@H](CC(C)C)NC(=O)[C@H](CCCNC(=N)N)NC(=O)[C@H](Cc4ccc(O)cc4)NC(=O)[C@H](CCCCN)NC(=O)[C@H](CCSC)NC(=O)[C@H](CO)NC(=O)[C@H](Cc4c[nH]cn4)NC(=O)[C@H](CCCCN)NC3=O)C(=O)N[C@@H](CCCNC(=N)N)C(=O)N[C@@H](CCCCN)C(=O)N[C@@H]([C@@H](C)O)C(=O)N2)NC(=O)[C@H](CCCNC(=N)N)NC(=O)[C@H](CO)NC(=O)[C@H](CCCCN)NC(=O)[C@@H]2CCCN2C(=O)[C@H]([C@@H](C)CC)NC(=O)[C@H]([C@@H](C)O)NC(=O)[C@H](CC(=O)O)NC1=O` [[EWSS]ShK]: the half-maximal inhibitory concentration (IC50) against mKv1.3 was found to be 33 ± 7 pM. Besides, the “higher affinity for Kv1.3 than ShK-192” value at mKv1.3 (relative to ShK-192) came out at 4 fold.
Consider “RSCIDTIPKSRCTAFQCKHSMKYRLSFCRKTCGTC [ShK]”, for which the IC50 at Kv1.3 is 11 pM.
